Measured values published in US7244756B2, “Benzimidazol-2-one derivatives and their use” (Poseidon Pharmaceuticals A/S, priority 2002, dated 2007).
Read-outs that look alike come from different tables or passages of the source.

Columns and labels:
[1] = Stability in solution (water, 0.1M HCl, 0.1M NaOH, 60° C., HPLC); format: physicochemical
Method: (§1) In this example the stability of Compound 1 of the invention are compared to those of a close analogue of the prior art, i.e. 1,3-dihydro-1-[2-hydroxy-5-(trifluoromethyl)phenyl]-5-(trifluoromethyl)-2H-Benzimidazol-2-one (i.e. NS1619 described in WO 01/54771) herein designated the Reference Compound.
The stability is determined in neutral (H2O), in basic (0.1M NaOH) and in acidic solution (0.1M HCl).
50 ml of water was added to 27 mg of the reference compound. The compound was only partly dissolved. The suspension was stored at 60° C. and after 24 hours 25 ml of methanol was added in order to completely dissolve reference compound. The solution was stored for further 4 hours and then analysed by HPLC (t=28 hours).
50 ml of 0.1M hydrochloric acid was added to 27 mg of the reference compound. The compound was only partly dissolved. The suspension was stored at 60° C. and after 48 hours 25 ml of methanol was added in order to completely dissolve he reference compound. The solution was stored for further 4. hours and then arialysed by HPLC (t=52 hours).
50 ml of 0.1M sodium hydroxide was added to 24 mg of the reference compound. The compound was completely dissolved. The solution was stored at 60° C. and analysed by HPLC after 2 hours (t=2 hours).
(§2) 50 ml of water was added to 25 mg of Compound 1. The compound was only partly dissolved. The suspension was stored at 60° C., and after 48 hours, 25 ml of acetonitrile was added in order to completely dissolve Compound 1. The solution was stored for further 24 hours and then analysed by HPLC (t=72 hours).
as §2, with “of 0.1M hydrochloric acid” for “of water”, “to 27” for “to 25”, “was only-partly” for “was only partly”
50 ml of 0.1M sodium hydroxide was added to 26 mg of Compound 1. The compound was completely dissolved. The solution was stored at 60° C. and analysed by HPLC after 72 hours (t=72 hours).

[2] = Pharmacokinetic parameters in rats (i.v. and p.o. dosing, plasma LC-MS/MS); format: in vivo, male Wistar rats; conditions: rat; for half-life / Cmax / Tmax / bioavailability / Vd: male, Wistar, plasma
Method: as §1, with “pharmacokinetic parameters” for “stability”, “described” for “described in”, “01/54711)” for “01/54771)”
The blood samples were centrifuged at 1.300 g at 4° C. for 25 minutes and the resulting plasma samples were stored at <−15° C. pending analysis.
The compounds were dosed as clear solutions in phosphate buffer/Tween 80 (90:10) in a concentration of 3 mg/ml.
Aliquots of samples, calibrants and QC's (100 μl) were pipetted into 1.5 ml eppendorf tubes. To each tube (except matrix blank) was added 300 μl acetonitrile with internal standards. Matrix blank was added 300 μl acetonitrile without internal standard.
The tubes were shaken on a whirlimixer and then centrifuged for 25 minutes at 16.000 g at 5° C. to precipitate proteins.
An aliquot (200 μl) of the supernatant was transferred to another 1.5 ml eppendorf tube and evaporated to dryness under a gentle stream of nitrogen at 40° C. Then the samples were reconstituted in […] (initial composition).
Incorporating the data from the rat plasma analyses, the pharmacokinetic parameters were calculated using WinNonLin Professional Edition version 2.0.

[3] = target: T1, large conductance calcium-activated potassium (BKCa) channels (Cavia porcellus, UniProt A0A286XP95); conditions: guinea pig airways, via activation of BKCa channels; cited from earlier work
T1 construct: sensory fibers innervating the guinea pig airways; host or cells: guinea pig airway sensory nerve fibers (native tissue)

[4] = iv, i.v. 3 mg/kg, time-points 5 min–5 h, read-out: T1/2 (i.v.) (converted)
[5] = po, p.o. 30 mg/kg, i.v. 3 mg/kg
[6] = po, p.o. 30 mg/kg, time-points 3–24 h (Ref. Cpd.), 2–24 h (Cpd. 1), read-out: T1/2 (p.o.) (converted)

T1 sequence (A0A286XP95 1-1133): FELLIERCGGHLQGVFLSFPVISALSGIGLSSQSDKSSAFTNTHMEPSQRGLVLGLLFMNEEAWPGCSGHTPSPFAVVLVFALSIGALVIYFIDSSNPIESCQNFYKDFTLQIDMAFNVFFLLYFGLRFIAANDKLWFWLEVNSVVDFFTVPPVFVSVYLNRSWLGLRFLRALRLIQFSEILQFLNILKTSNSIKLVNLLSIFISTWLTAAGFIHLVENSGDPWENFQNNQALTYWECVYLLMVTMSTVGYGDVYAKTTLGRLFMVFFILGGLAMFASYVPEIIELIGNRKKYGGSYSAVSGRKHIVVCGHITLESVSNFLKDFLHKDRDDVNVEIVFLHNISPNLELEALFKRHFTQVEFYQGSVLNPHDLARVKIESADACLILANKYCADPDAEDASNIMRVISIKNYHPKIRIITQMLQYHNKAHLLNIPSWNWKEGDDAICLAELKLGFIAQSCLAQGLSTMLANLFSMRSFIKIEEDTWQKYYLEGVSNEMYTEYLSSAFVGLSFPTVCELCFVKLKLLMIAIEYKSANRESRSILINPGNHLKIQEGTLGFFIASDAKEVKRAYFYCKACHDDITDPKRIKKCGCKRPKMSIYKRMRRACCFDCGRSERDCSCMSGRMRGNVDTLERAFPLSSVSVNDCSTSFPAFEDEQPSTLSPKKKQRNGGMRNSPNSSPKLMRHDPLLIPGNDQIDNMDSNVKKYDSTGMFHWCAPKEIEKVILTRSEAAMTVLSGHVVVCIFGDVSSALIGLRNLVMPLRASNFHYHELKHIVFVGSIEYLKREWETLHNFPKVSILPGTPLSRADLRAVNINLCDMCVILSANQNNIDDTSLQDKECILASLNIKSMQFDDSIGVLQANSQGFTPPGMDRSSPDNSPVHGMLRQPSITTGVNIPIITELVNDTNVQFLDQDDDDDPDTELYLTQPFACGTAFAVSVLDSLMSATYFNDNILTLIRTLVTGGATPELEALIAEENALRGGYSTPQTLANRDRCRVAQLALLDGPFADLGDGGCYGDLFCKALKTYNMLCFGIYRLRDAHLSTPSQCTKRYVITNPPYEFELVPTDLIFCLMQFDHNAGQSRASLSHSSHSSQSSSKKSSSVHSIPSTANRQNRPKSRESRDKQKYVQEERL

Area% (UV 225 nm) of the Test Substance ([1]; HCl (0.1M), 60° C., Initial) [%]	Area% (UV 225 nm) of the Test Substance ([1]; NaOH (0.1M), 60° C., Initial) [%]	Area% (UV 225 nm) of the Test Substance ([1]; Water, 60° C., Initial) [%]	half-life [2, 4] [h]	Cmax ([2]; po, p.o. 30 mg/kg) [ng/mL]	Tmax ([2]; po, p.o. 30 mg/kg) [h]	bioavailability [2, 5] [%]	half-life [2, 6] [h]	Vd [2] [L/kg]	Time after which Cmax after p.o. administration is reached ([2]; p.o.) [min]	Structure (SMILES)	also measured
99.7	99.7	99.7	0.8	4200	0.5	97	3.2	1.9	30	O=c1[nH]c2cc(Cl)ccc2n1-c1cc(Cl)ccc1O [Compound 1, 5-Chloro-1-(5-chloro-2-hydroxy-phenyl)-1,3-dihydro-benzimidazole-2-one]	Area% (UV 225 nm) of the Test Substance ([1]; HCl (0.1M), 60° C., t = 72 hours): 99.6%; Area% (UV 225 nm) of the Test Substance ([1]; NaOH (0.1M), 60° C., t = 72 hours): 99.4%; Area% (UV 225 nm) of the Test Substance ([1]; Water, 60° C., t = 72 hours): 99.6%; Absorption compared to the reference compound ([2]; p.o.): faster absorption; Half-life after p.o. administration compared to the reference compound ([2]; p.o.): slightly longer
98.4	98.4	98.4	1.7	10000	3	145	2.5	1.1	180	O=c1[nH]c2cc(C(F)(F)F)ccc2n1-c1cc(C(F)(F)F)ccc1O [Reference Compound, 1,3-dihydro-1-[2-hydroxy-5-(trifluoromethyl)phenyl]-5-(trifluoromethyl)-2H-Benzimidazol-2-one]	Area% (UV 225 nm) of the Test Substance ([1]; HCl (0.1M), 60° C., t = 52 hours): 98.4%; Area% (UV 225 nm) of the Test Substance ([1]; NaOH (0.1M), 60° C., t = 2 hours): 0.0%; Area% (UV 225 nm) of the Test Substance ([1]; Water, 60° C., t = 28 hours): 96.7%; Stability in 0.1 M NaOH (in words) ([1]; dissolved in 0.1 M NaOH): degrades instantly; Stability in solution (in words) ([1]; neutral, acidic and basic solution, 60° C.): unstable in neutral to basic solutions; Effect on activity of myelinated and non-myelinated airway sensory fibers [3]: inhibits the activity
